Experimental data published in US8481576B2 (Abbott GmbH & Co. KG, priority 2004, dated 2013).
pKi: −log10 of the molar value. Structures can show the parent of a compound that is named as a salt.

Biological target: T1, h5-HT5A receptor (Homo sapiens, UniProt P47898)
T1 construct: expressed in transfected cells; host or cells: HEK293
Experiment: [3H]5-CT binding assay h5-HT5A
Conditions: membranes from HEK293 cells expressing h5-HT5A, 2.5 nM [3H]5-CT; read-out: Binding affinity 5-HT5A (Ki)
In short: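 Membranes from HEK293 cells stably expressing h5-HT5A incubated with 2.5 nM [3H]5-CT and compound in 100 mM Tris-HCl pH 7.7, 1 mM EDTA, 75 min at 30° C. Nonspecific binding with 10 μM methiothepine; filtration and scintillation counting give Ki or IC50.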

T1 sequence (P47898 whole entry): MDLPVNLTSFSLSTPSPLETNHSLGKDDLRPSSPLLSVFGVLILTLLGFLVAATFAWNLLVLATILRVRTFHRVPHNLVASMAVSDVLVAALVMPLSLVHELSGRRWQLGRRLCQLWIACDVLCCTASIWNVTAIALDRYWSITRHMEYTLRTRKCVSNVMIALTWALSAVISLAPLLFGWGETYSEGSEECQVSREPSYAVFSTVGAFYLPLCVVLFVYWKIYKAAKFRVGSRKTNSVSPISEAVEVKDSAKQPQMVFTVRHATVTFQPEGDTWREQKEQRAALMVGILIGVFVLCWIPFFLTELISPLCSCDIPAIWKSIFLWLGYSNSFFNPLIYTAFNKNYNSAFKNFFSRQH

Row | pKi | Molecule
1 | > 7.30 | COc1ccccc1CNC(=N)Nc1nc2ccccc2[nH]1 [Example 93, N-1H-benzimidazole-2-yl-N′-(2-methoxybenzyl)guanidine acetate]
2 | > 7.30 | COc1cccc(OC)c1CNC(=N)Nc1nc(C2CCCN2Cc2ccccc2)cs1 (stereo not shown) [Example 151, N-[4-(1-benzylpyrrolidine-2-yl)-1,3-thiazole-2-yl]-N′-(2,6-dimethoxybenzyl)guanidine]
3 | > 7.30 | COc1cccc(OC)c1CNC(=N)Nc1nc(Cc2ccc(F)cc2)cs1 [Example 143, N-(2,6-dimethoxybenzyl)-N′-[4-(4-fluorobenzyl)-1,3-thiazole-2-yl]guanidine]
4 | > 7.30 | COc1ccccc1-c1csc(NC(=N)NCc2c(OC)cccc2OC)n1 [Example 75, N-(2,6-dimethoxybenzyl)-N′-[4-(2-methoxyphenyl)-1,3-thiazole-2-yl]guanidine hydrobromide]
5 | 6.30 to 7.30 | COc1cccc(OC)c1CNC(=N)Nc1nc(-c2ccc(C(C)C)cc2)cs1 [Example 95, N-(2,6-dimethoxybenzyl)-N′-[4-(4-isopropylphenyl)-1,3-thiazole-2-yl]guanidine]
6 | > 7.30 | COc1cccc(OC)c1CNC(=N)Nc1nc(C)c(C)o1 [Example 174, N-(2,6-dimethoxybenzyl)-N′-(4,5-dimethyl-1,3-oxazole-2-yl)guanidine acetate]
7 | > 7.30 | COc1cccc(OC)c1CNC(=N)Nc1ncc(C)s1 [Example 55, N-(2,6-dimethoxybenzyl)-N′-(5-methyl-1,3-thiazole-2-yl)guanidine]
8 | 6.30 to 7.30 | N=C(NCc1ccccc1OCc1ccccc1)Nc1nccs1 [Example 17, N-[2-(benzyloxy)benzyl]-N′-1,3-thiazole-2-ylguanidine]
9 | > 7.30 | Methyl-[2-({imino[(2-methoxybenzyl)amino]methyl}amino)-1,3-thiazole-4-yl]acetate [Example 47]
10 | < 6.30 | COc1cccc(OC)c1CNC(=N)Nc1nc(-c2cccc(C(F)(F)F)c2)cs1 [Example 108, N-(2,6-dimethoxybenzyl)-N′-{4-[3-(trifluoromethyl)phenyl]-1,3-thiazole-2-yl}guanidine]
11 | > 7.30 | COc1ccccc1CNC(=N)Nc1nccs1 [Example 1, N-(2-methoxybenzyl)-N′-1,3-thiazole-2-ylguanidine]
12 | > 7.30 | COc1cccc(OC)c1CNC(=N)Nc1nc(C)c(C(=O)N(C)C)s1 [Example 102, 2-{[[(2,6-dimethoxybenzyl)amino](imino)methyl]amino}-N,N,4-trimethyl-1,3-thiazole-5-carboxamide]
13 | > 7.30 | COc1cccc(OC)c1CNC(=N)Nc1nc(-c2ccncc2)cs1 [Example 45, N-(2,6-dimethoxybenzyl)-N′-(4-pyridine-4-yl-1,3-thiazole-2-yl)guanidine]
14 | 6.30 to 7.30 | COc1ccccc1CNC(=N)Nc1nc(-c2ccccc2)co1 [Example 197, N-(2-methoxybenzyl)-N′-(4-phenyl-1,3-oxazole-2-yl)guanidine]
15 | > 7.30 | COc1cccc(OC)c1CNC(=N)Nc1nccs1 [Example 5, N-(2,6-dimethoxybenzyl)-N′-1,3-thiazole-2-ylguanidine]
16 | > 7.30 | COc1cccc(OC)c1CNC(=N)Nc1ccn(C)n1 [Example 215, N-(2,6-dimethoxybenzyl)-N′-(1-methyl-1H-pyrazole-3-yl)guanidine]

Row | pKi | Molecule
17 | 6.30 to 7.30 | CCOc1ccc2nc(NC(=N)NCc3ccccc3OC)sc2c1 [Example 170, N-(6-ethoxy-1,3-benzothiazole-2-yl)-N′-(2-methoxybenzyl)guanidine fumarate]
18 | 6.30 to 7.30 | COc1cccc(F)c1CNC(=N)Nc1nc(-c2ccc(F)cc2)cs1 [Example 141, N-(2-fluoro-6-methoxybenzyl)-N′-[4-(4-fluorophenyl)-1,3-thiazole-2-yl]guanidine]
19 | < 6.30 | COc1ccccc1CNC(=N)Nc1nc(-c2ccc(NS(C)(=O)=O)cc2)cs1 [Example 104, N-{4-[2-({imino[(2-methoxybenzyl)amino]methyl}amino)-1,3-thiazole-4-yl]phenyl}methanesulfonamide]
20 | > 7.30 | COc1cccc(OC)c1CNC(=N)Nc1nc(-c2ccc(N(C)C)cc2)cs1 [Example 110, N-(2,6-dimethoxybenzyl)-N′-{4-[4-(dimethylamino)phenyl]-1,3-thiazole-2-yl}guanidine hydrobromide]
21 | > 7.30 | COc1ccccc1CNC(=N)Nc1nc(-c2ccc3ccccc3c2)cs1 [Example 33, N-(2-methoxybenzyl)-N′-[4-(2-naphthyl)-1,3-thiazole-2-yl]guanidine]
22 | > 7.30 | CCc1csc(NC(=N)NCc2c(OC)cccc2OC)n1 [Example 3, N-(2,6-dimethoxybenzyl)-N′-(4-ethyl-1,3-thiazole-2-yl)-guanidine]
23 | 6.30 to 7.30 | COc1ccc(F)cc1CNC(=N)Nc1nc(C)cs1 [Example 130, N-(5-fluoro-2-methoxybenzyl)-N′-(4-methyl-1,3-thiazole-2-yl)guanidine fumarate]
24 | > 7.30 | COc1cccc(OC)c1CNC(=N)Nc1nc(C23CC4CC(CC(C4)C2)C3)cs1 [Example 85, N-[4-(1-adamantyl)-1,3-thiazole-2-yl]-N′-(2,6-dimethoxybenzyl)guanidine hydrobromide]
25 | 6.30 to 7.30 | COc1ccccc1CNC(=N)Nc1ccsc1 [Example 30, N-(2-methoxy-benzyl)-N′-thiophene-3-yl-guanidine acetate]
26 | > 7.30 | COc1cccc(OC)c1CNC(=N)Nc1nc(CN(C)C)cs1 [Example 158, N-(2,6-Dimethoxybenzyl)-N′-{4-[(dimethylamino)methyl]-1,3-thiazole-2-yl}guanidine acetate]
27 | > 7.30 | COc1cccc(OC)c1CNC(=N)Nc1nc(-c2ccc(-c3ccccc3)cc2)cs1 [Example 74, N-(4-biphenyl-4-yl-1,3-thiazole-2-yl)-N′-(2,6-dimethoxybenzyl)guanidine hydrobromide]
28 | > 7.30 | COc1cccc(OC)c1CNC(=N)Nc1nc2c(s1)CCc1ccccc1-2 [Example 127, N-(4,5-dihydronaphtho[1,2-d][1,3]thiazole-2-yl)-N′-(2,6-dimethoxybenzyl)guanidine]
29 | > 7.30 | COc1cccc(OC)c1CNC(=N)Nc1nc2c(s1)CNCC2 [Example 223, N-(2,6-dimethoxybenzyl)-N′-(4,5,6,7-tetrahydro[1,3]thiazolo[5,4-c]pyridine-2-yl)guanidine]
30 | 6.30 to 7.30 | Cc1ccc(C)c(CNC(=N)Nc2nccs2)c1 [Example 4, N-(2,5-dinnethylbenzyl)-N′-1,3-thiazole-2-ylguanidine hydrochloride]
31 | > 7.30 | COc1cccc(OC)c1CNC(=N)Nc1nc(-c2ccc(Cl)s2)cs1 [Example 77, N-[4-(5-chloro-2-thienyl)-1,3-thiazole-2-yl]-N′-(2,6-dimethoxybenzyl)guanidine hydrobromide]
32 | 6.30 to 7.30 | N=C(NCCOc1ccccc1Cl)Nc1nccs1 [Example 29, N-[2-(2-chlorophenoxy)ethyl]-N′-1,3-thiazole-2-ylguanidine (2E)-But-2-endioate]

Row | Molecule | pKi
33 | N-[4-(2-{[[(2,6-dimethoxybenzyl)amino](imino)methyl]amino}-1,3-thiazole-4-yl)phenyl]acetamide acetate [Example 79] | > 7.30
34 | COc1ccccc1CCNC(=N)Nc1nccs1 [Example 16, N-[2-(2-methoxyphenyl)ethyl]-N′-1,3-thiazole-2-ylguanidine hydrochloride] | < 6.30
